This passage reports Kd results from PMC12415202, “Specificities of chemosensory receptors in the human gut microbiota” (Proceedings of the National Academy of Sciences of the …, 2025).

What all share (test): ITC
One assay deals with T1, K1 LBD.
T1 construct: source species and locus only in SI

Another assay deals with T2, C1 LBD.
T2 construct: source species and locus only in SI
The source says: ITC on C1 LBD | The binding of L-lactate to the K1 and C1 LBDs

The next assay deals with T3, B9 LBD.
T3 construct: source species and locus only in SI
From the text: ITC on B9 LBD | The binding of L-threonine to the B9 LBD

The target in another assay is T4, B6 LBD.
T4 construct: locus only in SI
Also on record: species or system Catenibacterium mitsuokai. The source says: ITC on B6 LBD | the binding of indole to the B6 LBD were confirmed by isothermal titration calorimetry

Another assay concerns the target T5, D8 LBD.
T5 construct: D8-dm = residues 33-179, D8-pm = residues 153-280; source species and locus only in SI
Conditions: membrane-distal module.

The next assay deals with T6, J6 LBD.
T6 construct: source species and locus only in SI
The source says:
ITC on J6 LBD | ethylamine and methylamine to the J6 LBD was confirmed by ITC

`C[C@@H](O)C(=O)O` [D-lactate] returned a Kd at K1 LBD of 66.1 ± 10.7 µM.
With `C[C@H](O)C(=O)O` [L-lactate], the Kd on K1 LBD amounted to 16 ± 0.56 µM; at C1 LBD, 26.8 ± 0.91 µM.
As to `C[C@@H](O)[C@H](N)C(=O)O` [L-threonine], the affinity on B9 LBD, expressed as Kd, was 1.3 ± 0.2 µM.
Compound `c1ccc2[nH]ccc2c1` [indole] showed a Kd on B6 LBD of 35.6 ± 7.02 µM.
For the compound `C=C(CC(=O)O)C(=O)O` [itaconate], the Kd on D8 LBD is 9.6 ± 0.9 µM.
In the case of `O=C(O)/C=C\C(=O)O` [maleate], the Kd on D8 LBD stood at 7.7 ± 0.41 µM.
`CN` [methylamine] gave a Kd at J6 LBD of 242 ± 22 µM.
On to `O=C(O)CCC(=O)O` [succinate], for which the Kd on D8 LBD amounted to 1.7 ± 0.11 µM.
